SMILES strings stand for the structures. In brackets after ≈: the same amount, converted by molar mass.

The subject of data set [1] is Mycobacterium tuberculosis. Nature of the data set: Antitubercular activity against Mycobacterium tuberculosis H37Rv ATCC 27294 at 6.25 ug/ml by MABA. The data set is classed as functional. A general note: Resazurin is reduced to fluorescent resorufin, in cell work by metabolically active cells.
Data set [2] deals with Mycobacterium tuberculosis. The experiment in a line: Antitubercular activity against Mycobacterium tuberculosis H37Rv ATCC 27294 by MABA. The data set is classed as functional.
Another data set has as its system Vero. The experiment in a line: Cytotoxicity against African green monkey Vero cells assessed as reduction in cell viability after 72 hrs by MTT assay. The format is cell-based. To be noted: Chlorocebus sabaeus.
A short description of data set [3]: Selectivity ratio of IC50 for African green monkey Vero cells to MIC for Mycobacterium tuberculosis H37Rv ATCC 27294. The data set is classed as toxicity. To be noted: read-out: Selectivity Index.
Data set [4] deals with Mycobacterium tuberculosis. The experiment in a line: Bacteriostatic activity against Mycobacterium tuberculosis Erdman infected in mouse bone marrow macrophage monolayers assessed as reduction in colony forming units at 4 fold MIC concentration after 7 days. To be noted: Erdman = ATCC 35801, 168 h. The format is functional.
In data set [5] the test system is Mycobacterium tuberculosis. Nature of the data set: Bactericidal activity against Mycobacterium tuberculosis Erdman infected in mouse bone marrow macrophage monolayers assessed as reduction in colony forming units at 4 fold MIC concentration after 7 days. The data set is classed as functional. The following applies: Erdman = ATCC 35801, 168 h.
Data set [6] can be described thus: Ratio of EC90 for Mycobacterium tuberculosis Erdman infected in mouse bone marrow macrophage monolayers to MIC for Mycobacterium tuberculosis H37Rv ATCC 27294. The format is functional.

Turning to `CCCCc1nc(Cl)c(C2NC(=O)NC(C)=C2C(=O)Nc2ccccc2OC)[nH]1` (stereo not given), the inhibition (usually the change of the read-out against control, counted positive when it falls) at 6.25 µg/mL in data set [1] is 79%.
On the same count and under the same terms, with `CCCCc1nc(Cl)c(C2NC(=O)NC(C)=C2C(=O)Nc2ccc(C)cc2)[nH]1` (stereo not given) the figure was 72%.
For `CCCCc1nc(Cl)c(C2NC(=O)NC(C)=C2C(=O)Nc2ccccc2F)[nH]1` (stereo not given), in data set [2], the MIC90 – broadly, an inhibitory concentration at the 90% level, which refers to growth in some studies and to a panel of isolates in others – stood at 3.12 µg/mL (≈ 7.69 µM). For the same molecule, the inhibition at 6.25 µg/mL in data set [1] was 90%. Further, the IC50 (in general, the point on the concentration scale where inhibition reaches its midpoint) in the data set with Vero is greater than 10 µg/mL. For the same molecule, the selectivity ratio in data set [3] was greater than 3.12.
`CCCCc1nc(Cl)c(C2NC(=O)NC(C)=C2C(=O)Nc2cccc(F)c2)[nH]1` (stereo not given): testing at 6.25 µg/mL in data set [1] gave an inhibition of 85%.
`CCCCc1nc(Cl)c(C2NC(=O)NC(C)=C2C(=O)Nc2ccc(F)cc2)[nH]1` (stereo not given) registered an MIC90 in data set [2] of 0.39 µg/mL (≈ 0.961 µM). This molecule yielded an inhibition at 6.25 µg/mL in data set [1] of 99%. The IC50 in the data set with Vero is greater than 10 µg/mL. Besides, in data set [3], the selectivity ratio is greater than 25.6. Further, in data set [4], the EC90 (as a rule, the concentration needed for an effect of 90%) was 0.039 µg/mL (≈ 0.0961 µM). Also, in data set [5], the EC99 (commonly the point of the concentration-response curve where the effect stands at 99%) is 0.54 µg/mL. The Ratio in data set [6] amounted to 0.1.
Consider `CCCCc1nc(Cl)c(C2NC(=O)NC(C)=C2C(=O)Nc2cccc(Cl)c2)[nH]1` (stereo not given), for which the inhibition at 6.25 µg/mL in data set [1] was 89%.
In data set [2], `CCCCc1nc(Cl)c(C2NC(=O)NC(C)=C2C(=O)Nc2ccccc2Cl)[nH]1` (stereo not given) gave an MIC90 of 1.56 µg/mL (≈ 3.69 µM). This molecule also yielded an inhibition at 6.25 µg/mL in data set [1] of 92%. In addition, the IC50 in the data set on Vero was 7.6 µg/mL (≈ 18 µM). Besides, the selectivity ratio in data set [3] stood at 4.87.
In turn, `CCCCc1nc(Cl)c(C2NC(=O)NC(C)=C2C(=O)Nc2ccc(OC)cc2)[nH]1` (stereo not given) gave an inhibition at 6.25 µg/mL in data set [1] of 89%.
Turning to `CCCCc1nc(Cl)c(C2NC(=O)NC(C)=C2C(=O)Nc2ccc([N+](=O)[O-])cc2)[nH]1` (stereo not given), in data set [2], the MIC90 was 0.78 µg/mL (≈ 1.8 µM). In data set [1], this molecule registered an inhibition at 6.25 µg/mL of 98%. Besides, the IC50 in the data set on Vero is greater than 10 µg/mL. Besides, the selectivity ratio in data set [3] is greater than 12.8. Also, the EC90 in data set [4] came to 0.074 µg/mL (≈ 0.171 µM). For the same molecule, the EC99 in data set [5] worked out at 0.59 µg/mL. For the same molecule, in data set [6], the Ratio is on record as 0.09.
Turning to `CCCCc1nc(Cl)c(C2NC(=O)NC(C)=C2C(=O)Nc2cccc([N+](=O)[O-])c2)[nH]1` (stereo not given), the inhibition at 6.25 µg/mL in data set [1] is 76%.
`CCCCc1nc(Cl)c(C2NC(=O)NC(C)=C2C(=O)Nc2ccccc2[N+](=O)[O-])[nH]1` (stereo not given): testing at 6.25 µg/mL in data set [1] gave an inhibition of 82%.
Turning to `NNC(=O)c1ccncc1` [ISONIAZID], the MIC90 in data set [2] is 0.03 to 0.06 µg/mL (≈ 0.219 to 0.438 µM). The selectivity ratio in data set [3] is greater than 40000. For the same molecule, the EC90 in data set [4] was 0.03 µg/mL (≈ 0.219 µM). Moreover, in data set [5], the EC99 was 0.42 µg/mL. Also, the Ratio in data set [6] was 1.
On to `CCCCc1nc(Cl)c(C2NC(=O)NC(C)=C2C(=O)Nc2ccccc2)[nH]1` (stereo not given), for which the inhibition at 6.25 µg/mL in data set [1] came to 59%.
Same read-out and setting: the figure for `CCCCc1nc(Cl)c(C2NC(=O)NC(C)=C2C(=O)Nc2ccccc2C)[nH]1` (stereo not given) is 63%; for `CCCCc1nc(Cl)c(C2NC(=O)NC(C)=C2C(=O)Nc2cccc(OC)c2)[nH]1` (stereo not given) it is 72%.
In turn, `CCCCc1nc(Cl)c(C2NC(=O)NC(C)=C2C(=O)Nc2cccc(C)c2)[nH]1` (stereo not given) yielded an inhibition at 6.25 µg/mL in data set [1] of 65%.
Take `CCCCc1nc(Cl)c(C2NC(=O)NC(C)=C2C(=O)Nc2ccc(Cl)cc2)[nH]1` (stereo not given): in data set [2], the MIC90 was found to be 0.39 µg/mL (≈ 0.923 µM). The inhibition at 6.25 µg/mL in data set [1] is 97%. In the data set on Vero, the IC50 turned out to be 9.4 µg/mL (≈ 22.3 µM). In addition, in data set [3], the selectivity ratio worked out at 24.1. Also, in data set [4], the EC90 came to 0.102 µg/mL (≈ 0.242 µM). Moreover, in data set [5], the EC99 amounted to 0.69 µg/mL. Moreover, the Ratio in data set [6] came out at 0.26.

The values above are taken from ChEMBL document CHEMBL4425147, “Preparation, biological evaluation and molecular docking study of imidazolyl dihydropyrimidines as potential Mycobacterium tuberculosis dihydrofolate reductase inhibitors” (Bioorg Med Chem Lett, 2016).
